≈ marks a conversion by molar mass, not a printed value. Calls of active or inactive are those of the source. The calls are words filed in the database; no cut-off is given here.
Columns and labels:
HT-29 = test: Cytotoxicity against human HT-29 cells assessed as cell growth inhibition at 15 ug/ml after 72 hrs by MTT assay; assay type: functional, cell-based
A549 = test: Cytotoxicity against human A549 cells assessed as cell growth inhibition at 15 ug/ml after 72 hrs by MTT assay; assay type: functional, cell-based
Staphylococcus aureus = test: Antibacterial activity against methicillin-resistant Staphylococcus aureus after 20 hrs by spectrophotometry; assay type: functional
HepG2 = test: Cytotoxicity against human HepG2 cells assessed as cell growth inhibition at 15 ug/ml after 72 hrs by MTT assay; assay type: functional, cell-based
MIA PaCa-2 = test: Cytotoxicity against human MIAPaCa2 cells assessed as cell growth inhibition at 15 ug/ml after 72 hrs by MTT assay; assay type: functional, cell-based
MCF7 = test: Cytotoxicity against human MCF7 cells assessed as cell growth inhibition at 15 ug/ml after 72 hrs by MTT assay; assay type: functional, cell-based

Row | Compound | growth inhibition (GI) (HT-29) | growth inhibition (GI) (A549) | MIC50 (Staphylococcus aureus) [µg/mL] | growth inhibition (GI) (HepG2) | growth inhibition (GI) (MIA PaCa-2) | growth inhibition (GI) (MCF7)
1 | C=C1CCC[C@]2(C)CC[C@@]3(O)[C@@H]([C@@H](C(C)C)CC[C@@H]3C)[C@H]12 | inactive | inactive | 48 (≈ 165 µM) | inactive | inactive | inactive
2 | CC1=CCC[C@]2(C)CC[C@@]3(O)[C@@H]([C@@H](C(C)C)CC[C@@H]3C)[C@H]12 | inactive | inactive |  | inactive | inactive | inactive
3 | CC1=CCC[C@]2(C)CC[C@@H]3[C@@H]([C@@H](C(C)C)CC[C@]3(C)O)[C@H]12 | inactive | inactive |  | inactive | inactive | inactive

— ChEMBL document CHEMBL4477154, “Gersemiols A-C and Eunicellol A, Diterpenoids from the Arctic Soft Coral Gersemia fruticosa” (2016)
